Assay: Patient incidence of adverse events (CTCAE version 4.0)
Format: in vivo
Details: 240-mg dose expansion
Text: Each patient was monitored for 21 days for the occurrence of dose-limiting toxicities (DLTs), defined as febrile neutropenia, neutropenic infection, grade 4 neutropenia lasting >7 days, grade ≥ 3 thrombocytopenia lasting >7 days (solid tumors only), grade 3 thrombocytopenia with grade ≥ 2 bleeding (solid tumors only), grade 3 or 4 thrombocytopenia with grade > 1 bleeding (multiple myeloma only), grade 4 thrombocytopenia (solid tumors only), or grade 4 thrombocytopenia lasting >14 days (multiple myeloma only), or as grade ≥ 3 nausea, vomiting, or diarrhea after support; grade 3 fatigue lasting >7 days; any other grade ≥ 3 adverse event (AE); grade ≥ 3 kidney injury (multiple myeloma only), or treatment-related AEs not returning to grade ≤ 1 (solid tumors only) per Common Terminology Criteria for Adverse Events (CTCAE), version 4.0. The MTD was defined as the maximum dose, at which the probability of a DLT was ≤25% in Part 1A and ≤ 33% in Parts 1B and 1C. Treatment continued until disease progression, intolerable toxicity, or withdrawal of consent.
AEs were recorded for all enrolled patients.

CC(C)[C@@H](CS(=O)(=O)C(C)C)N1C(=O)[C@@](C)(CC(=O)O)C[C@H](c2cccc(Cl)c2)[C@H]1c1ccc(Cl)cc1 [AMG 232]
4 (100) n (%): Patients with any treatment-emergent AE (ER + PR–Breast (n = 4)) | Patients with any treatment-related AE (ER + PR–Breast (n = 4)) | Treatment-related AE: Diarrhea (ER + PR–Breast (n = 4))
1 (25) n (%): Patients with any treatment-emergent serious AE (ER + PR–Breast (n = 4)) | Patients with any treatment-related AE, Grade 3 (ER + PR–Breast (n = 4)) | Treatment-related AE: Anemia (ER + PR–Breast (n = 4)) | Treatment-related AE: Asthenia (ER + PR–Breast (n = 4))
6 (60) n (%): Treatment-related AE: Diarrhea (DDLPS (n = 10)) | Treatment-related AE: Fatigue (GBM (n = 10)) | Patients with any treatment-related AE, Grade 3 (Multiple Myeloma (n = 10))
3 (30) n (%): Treatment-related AE: Vomiting (GBM (n = 10)) | Patients with any treatment-related AE, Grade 4 (Multiple Myeloma (n = 10)) | Treatment-related AE: Neutropenia (Multiple Myeloma (n = 10)) | Treatment-related AE: Thrombocytopenia (Multiple Myeloma (n = 10))
5 (31) n (%): Patients with any treatment-emergent serious AE (Other Solid (n = 16))
9 (90) n (%): Patients with any treatment-emergent AE (DDLPS (n = 10)) | Patients with any treatment-related AE (DDLPS (n = 10))
2 (20) n (%): Treatment-related AE: Vomiting (DDLPS (n = 10)) | Treatment-related AE: Neutropenia (GBM (n = 10)) | Treatment-related AE: Thrombocytopenia (GBM (n = 10)) | Patients with any serious, treatment-related AE (Multiple Myeloma (n = 10)) | Serious, treatment-related AE: Vomiting (grade 3) (Multiple Myeloma (n = 10)) | Treatment-related AE: Dysgeusia (Multiple Myeloma (n = 10)) | Treatment-related AE: Fatigue (Multiple Myeloma (n = 10))
16 (100) n (%): Patients with any treatment-emergent AE (Other Solid (n = 16))
4 (50) n (%): Patients with any treatment-related AE, Grade 3 (ER + PR+ Breast (n = 8))
2 (25) n (%): Patients with any serious, treatment-related AE (ER + PR+ Breast (n = 8)) | Treatment-related AE: Dysgeusia (ER + PR+ Breast (n = 8))
4 n: AE resulting in treatment discontinuation: vomiting
14 (88) n (%): Patients with any treatment-related AE (Other Solid (n = 16))
2 (13) n (%): Patients with any treatment-related AE, Grade 4 (Other Solid (n = 16))
7 (70) n (%): Treatment-related AE: Fatigue (DDLPS (n = 10)) | Patients with any treatment-emergent serious AE (GBM (n = 10)) | Treatment-related AE: Diarrhea (Multiple Myeloma (n = 10))
1 (10) n (%): Treatment-related AE: Asthenia (DDLPS (n = 10)) | Treatment-related AE: Dysgeusia (DDLPS (n = 10)) | Treatment-related AE: Thrombocytopenia (DDLPS (n = 10)) | Patients with any serious, treatment-related AE (GBM (n = 10)) | Serious, treatment-related AE: Hyperamylasemia (grade 3) (GBM (n = 10)) | Serious, treatment-related AE: Hyperlipasemia (grade 3) (GBM (n = 10)) | Treatment-related AE: Decrease appetite (GBM (n = 10)) | Treatment-related AE: Dysgeusia (GBM (n = 10)) | Treatment-related AE: Anemia (Multiple Myeloma (n = 10))
2 (50) n (%): Treatment-related AE: Vomiting (ER + PR–Breast (n = 4))
3 (75) n (%): Treatment-related AE: Decrease appetite (ER + PR–Breast (n = 4)) | Treatment-related AE: Nausea (ER + PR–Breast (n = 4))
4 (25) n (%): Patients with any treatment-related AE, Grade 3 (Other Solid (n = 16))
4 (40) n (%): Patients with any treatment-emergent serious AE (DDLPS (n = 10)) | Treatment-related AE: Decrease appetite (DDLPS (n = 10)) | Patients with any treatment-related AE, Grade 3 (GBM (n = 10)) | Treatment-related AE: Nausea (GBM (n = 10)) | Patients with any treatment-emergent serious AE (Multiple Myeloma (n = 10)) | Treatment-related AE: Asthenia (Multiple Myeloma (n = 10)) | Treatment-related AE: Decrease appetite (Multiple Myeloma (n = 10)) | Treatment-related AE: Nausea (Multiple Myeloma (n = 10)) | Treatment-related AE: Vomiting (Multiple Myeloma (n = 10))
5 (63) n (%): Treatment-related AE: Decrease appetite (ER + PR+ Breast (n = 8))
6 (75) n (%): Treatment-related AE: Nausea (ER + PR+ Breast (n = 8)) | Treatment-related AE: Vomiting (ER + PR+ Breast (n = 8))
10 (100) n (%): Patients with any treatment-emergent AE (GBM (n = 10)) | Patients with any treatment-related AE (GBM (n = 10)) | Patients with any treatment-emergent AE (Multiple Myeloma (n = 10)) | Patients with any treatment-related AE (Multiple Myeloma (n = 10))
3 (38) n (%): Patients with any treatment-emergent serious AE (ER + PR+ Breast (n = 8)) | Treatment-related AE: Fatigue (ER + PR+ Breast (n = 8))
8 (80) n (%): Treatment-related AE: Nausea (DDLPS (n = 10))
0 n (%): Patients with any serious, treatment-related AE (DDLPS (n = 10)) | Patients with any treatment-related AE, Grade 3 (DDLPS (n = 10)) | Patients with any treatment-related AE, Grade 4 (DDLPS (n = 10)) | Patients with any treatment-related AE, Grade 5 (DDLPS (n = 10)) | Serious, treatment-related AE: Dehydration (grade 3) (DDLPS (n = 10)) | Serious, treatment-related AE: Diarrhea (grade 3) (DDLPS (n = 10)) | Serious, treatment-related AE: Hyperamylasemia (grade 3) (DDLPS (n = 10)) | Serious, treatment-related AE: Hyperlipasemia (grade 3) (DDLPS (n = 10)) | Serious, treatment-related AE: Nausea (grade 3) (DDLPS (n = 10)) | Serious, treatment-related AE: Pulmonary embolism (grade 3) (DDLPS (n = 10)) | Serious, treatment-related AE: Vomiting (grade 3) (DDLPS (n = 10)) | Treatment-related AE: Anemia (DDLPS (n = 10)) | Treatment-related AE: Neutropenia (DDLPS (n = 10)) | Patients with any treatment-related AE, Grade 4 (ER + PR+ Breast (n = 8)) | Patients with any treatment-related AE, Grade 5 (ER + PR+ Breast (n = 8)) | Serious, treatment-related AE: Dehydration (grade 3) (ER + PR+ Breast (n = 8)) | Serious, treatment-related AE: Hyperamylasemia (grade 3) (ER + PR+ Breast (n = 8)) | Serious, treatment-related AE: Hyperlipasemia (grade 3) (ER + PR+ Breast (n = 8)) | Serious, treatment-related AE: Pulmonary embolism (grade 3) (ER + PR+ Breast (n = 8)) | Treatment-related AE: Anemia (ER + PR+ Breast (n = 8)) | Treatment-related AE: Neutropenia (ER + PR+ Breast (n = 8)) | Treatment-related AE: Thrombocytopenia (ER + PR+ Breast (n = 8)) | Patients with any serious, treatment-related AE (ER + PR–Breast (n = 4)) | Patients with any treatment-related AE, Grade 4 (ER + PR–Breast (n = 4)) | Patients with any treatment-related AE, Grade 5 (ER + PR–Breast (n = 4)) | Serious, treatment-related AE: Dehydration (grade 3) (ER + PR–Breast (n = 4)) | Serious, treatment-related AE: Diarrhea (grade 3) (ER + PR–Breast (n = 4)) | Serious, treatment-related AE: Hyperamylasemia (grade 3) (ER + PR–Breast (n = 4)) | Serious, treatment-related AE: Hyperlipasemia (grade 3) (ER + PR–Breast (n = 4)) | Serious, treatment-related AE: Nausea (grade 3) (ER + PR–Breast (n = 4)) | Serious, treatment-related AE: Pulmonary embolism (grade 3) (ER + PR–Breast (n = 4)) | Serious, treatment-related AE: Vomiting (grade 3) (ER + PR–Breast (n = 4)) | Treatment-related AE: Dysgeusia (ER + PR–Breast (n = 4)) | Treatment-related AE: Fatigue (ER + PR–Breast (n = 4)) | Treatment-related AE: Neutropenia (ER + PR–Breast (n = 4)) | Treatment-related AE: Thrombocytopenia (ER + PR–Breast (n = 4)) | Patients with any treatment-related AE, Grade 4 (GBM (n = 10)) | Patients with any treatment-related AE, Grade 5 (GBM (n = 10)) | Serious, treatment-related AE: Dehydration (grade 3) (GBM (n = 10)) | Serious, treatment-related AE: Diarrhea (grade 3) (GBM (n = 10)) | Serious, treatment-related AE: Nausea (grade 3) (GBM (n = 10)) | Serious, treatment-related AE: Pulmonary embolism (grade 3) (GBM (n = 10)) | Serious, treatment-related AE: Vomiting (grade 3) (GBM (n = 10)) | Treatment-related AE: Anemia (GBM (n = 10)) | Treatment-related AE: Asthenia (GBM (n = 10)) | Patients with any treatment-related AE, Grade 5 (Multiple Myeloma (n = 10)) | Serious, treatment-related AE: Dehydration (grade 3) (Multiple Myeloma (n = 10)) | Serious, treatment-related AE: Diarrhea (grade 3) (Multiple Myeloma (n = 10)) | Serious, treatment-related AE: Hyperamylasemia (grade 3) (Multiple Myeloma (n = 10)) | Serious, treatment-related AE: Hyperlipasemia (grade 3) (Multiple Myeloma (n = 10)) | Serious, treatment-related AE: Nausea (grade 3) (Multiple Myeloma (n = 10)) | Serious, treatment-related AE: Pulmonary embolism (grade 3) (Multiple Myeloma (n = 10)) | Patients with any serious, treatment-related AE (Other Solid (n = 16)) | Patients with any treatment-related AE, Grade 5 (Other Solid (n = 16)) | Serious, treatment-related AE: Dehydration (grade 3) (Other Solid (n = 16)) | Serious, treatment-related AE: Diarrhea (grade 3) (Other Solid (n = 16)) | Serious, treatment-related AE: Hyperamylasemia (grade 3) (Other Solid (n = 16))
7 (88) n (%): Treatment-related AE: Diarrhea (ER + PR+ Breast (n = 8))
5 (50) n (%): Treatment-related AE: Diarrhea (GBM (n = 10))
13 (19%) n (%): Patients with AEs resulting in treatment discontinuation
8 (100) n (%): Patients with any treatment-emergent AE (ER + PR+ Breast (n = 8)) | Patients with any treatment-related AE (ER + PR+ Breast (n = 8))
1 (13) n (%): Serious, treatment-related AE: Diarrhea (grade 3) (ER + PR+ Breast (n = 8)) | Serious, treatment-related AE: Nausea (grade 3) (ER + PR+ Breast (n = 8)) | Serious, treatment-related AE: Vomiting (grade 3) (ER + PR+ Breast (n = 8)) | Treatment-related AE: Asthenia (ER + PR+ Breast (n = 8))
2 n: AE resulting in treatment discontinuation: fatigue
